Results on one compound are retold here after patent publication US20160168118A1, “N-(5-QUINOLIN-6-YL)PYRIDIN-3-YL) BENZSULFAMIDE DERIVATIVES, PREPARATION METHOD AND THERAPEUTIC USE THEREOF” (SECOND MILITARY MEDICAL UNIVERSITY, PLA, priority 2012, published 2016).

Molecules are shown by their SMILES. ≈ marks a conversion by molar mass, not a printed value.

The nature of data set [1]: Solubility test in buffer solution at pH=1. Format: physicochemical. The note with it: pH=1 buffer solution, simulated gastric fluid, thermodynamic from solid; buffer solution pH=1. How it is done: Compound 9 1.02 mg was precisely weighed and placed in 1.5 mL of EP tube, and 10 uL pH=1 buffer solution was added, vortexed for 30S and ultrasonic for 20 min. There was a lot of visible turbidity after that.
20 uL buffer was added and ultrasounded and the solution was found still turbid. Turbidity reduced after the solution was diluted to 1 mL and vortexed, while there still exist residual after diluted to 2 mL.

Data set [2] deals with human lung carcinoma A549 xenografts. Nature of the data set: In vivo efficacy on human lung carcinoma A549 xenografts in nude mice. Also on record: species or system BALB/C nude mice. The note with it: ig, GSK2126458 3 mg/kg, compound 9 10 mg/kg. The source says: Strain: BALB/C nude mice (SPF grade), Source: Shanghai Slac laboratory animal limited liability company, the production license number: SCXK (Shanghai) 2007-0005, the using license number: SYXK (Shanghai) 2009-0068, gender: male, weight: 18-20 g, the number of animals per group: 6.
A549 solid tumors which were well-grown were taken, cut to uniform bits of about 3 mm size under aseptic condition, every bit was inoculated to each mouse subcutaneously in the right armpit with trocar, and randomly divided into three groups, each treatment was:
1) Control (saline), gavage, the dose 25 ml/kg, 14 days;
3) Compound 9, gavage, the dose 10 mg/kg, 14 days;
Regrouped according to tumor size on the 13th day after inoculation, the animals of which tumor size is too large and too small were eliminated, the average tumor volume of each group are basically the same. Administration was carried out according to the above regimen; the dosing volume was 0.5 ml/20 g body weight. The axis (a), shorter diameter (b) of tumor was measured 2 times a week with an electronic digital caliper, calculate formula of tumor volume (tumor volume, TV) is as follows: TV=1/2×a×b2, calculate formula of relative tumor volume (relative tumor volume, RTV), is as follows: RTV=Vt/Vo, wherein Vo is the tumor volume measured at the time when dividing cages (i.e. dl), Vt is the tumor volume measured each time. […] T test was conducted. Animals were sacrificed 30 days after inoculation, dissected and the tumor mass were taken, tumor weight was measured.
For orientation: In xenograft studies the graft and the host belong to different species.

The test system of data set [3] is A549 (human lung cancer cells). The experiment in a line: MTT assay, A549. Format: cell-based. Conditions: 72 h. The method, boiled down:
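Cells seeded at 4~5×10^4 cells/ml in DMEM with 5-10% FBS, treated after 24 h for 72 h at 37° C, 5% CO2, in duplicate wells. MTT (5 mg/ml) added for 4 h, formazan dissolved and OD read at 570 nm.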
Background: Tetrazolium dyes change colour on reduction, which living cells bring about.

In data set [4] the target is PI3Kγ (Homo sapiens, UniProt P48736). Nature of the data set: ADP-Glo Luminescent Kinase Assay, PI3Kγ. In kind it is biochemical. Conditions: read-out: IC50 on PI3K gamma. (In ADP-Glo the light output rises with the ADP produced.)
PI3Kγ, sequence (P48736 whole entry, species assumed): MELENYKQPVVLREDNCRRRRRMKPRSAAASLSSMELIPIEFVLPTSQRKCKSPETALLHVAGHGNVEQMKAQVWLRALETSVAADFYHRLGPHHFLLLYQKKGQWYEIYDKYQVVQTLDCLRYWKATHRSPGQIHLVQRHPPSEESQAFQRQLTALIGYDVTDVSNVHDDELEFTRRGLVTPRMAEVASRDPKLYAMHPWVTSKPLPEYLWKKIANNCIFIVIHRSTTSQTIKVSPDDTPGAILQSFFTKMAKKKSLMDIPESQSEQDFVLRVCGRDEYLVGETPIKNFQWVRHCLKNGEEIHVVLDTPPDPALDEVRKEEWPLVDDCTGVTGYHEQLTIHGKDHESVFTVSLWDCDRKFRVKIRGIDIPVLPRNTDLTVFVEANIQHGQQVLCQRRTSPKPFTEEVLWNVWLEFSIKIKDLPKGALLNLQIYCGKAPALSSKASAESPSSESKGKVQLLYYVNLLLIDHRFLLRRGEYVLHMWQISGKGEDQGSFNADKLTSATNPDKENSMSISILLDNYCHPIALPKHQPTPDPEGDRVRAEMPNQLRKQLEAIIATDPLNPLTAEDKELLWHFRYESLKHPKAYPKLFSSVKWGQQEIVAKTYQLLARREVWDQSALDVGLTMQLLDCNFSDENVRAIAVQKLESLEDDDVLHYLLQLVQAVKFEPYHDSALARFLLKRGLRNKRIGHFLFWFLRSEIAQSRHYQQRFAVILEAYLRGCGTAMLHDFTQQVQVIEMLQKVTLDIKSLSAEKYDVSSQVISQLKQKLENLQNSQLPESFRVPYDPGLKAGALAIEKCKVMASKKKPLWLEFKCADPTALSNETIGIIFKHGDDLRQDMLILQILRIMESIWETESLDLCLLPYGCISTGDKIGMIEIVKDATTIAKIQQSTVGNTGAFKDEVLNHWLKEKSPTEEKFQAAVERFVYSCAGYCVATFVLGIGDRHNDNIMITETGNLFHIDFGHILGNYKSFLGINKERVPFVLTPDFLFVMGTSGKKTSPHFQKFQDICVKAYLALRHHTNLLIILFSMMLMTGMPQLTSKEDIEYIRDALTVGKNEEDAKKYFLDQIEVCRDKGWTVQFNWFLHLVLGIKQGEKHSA
Data set [5] deals with U87MG (human brain star glioblastoma). The experiment in a line: MTT assay, U87MG. Format: cell-based. The note with it: U-87 MG, 72 h. How it is done: 1. Sample preparation: After dissolved with DMSO (Merck), PBS (−) was added to make 1000 μg/ml solution or a uniform suspension, and then diluted with PBS (−) containing the DMSO. Doxorubicin (DOX) was used as the positive control drug.
2. Cell Line • 1) A549 (human lung cancer cells); 2) HCT116 (human colon cancer cells); 3) HepG2 (human hepatoma cells); 4) ZR-75-30 (human breast cancer cells); 5) U87MG (human brain star glioblastoma)
DMEM+5-10% FBS+double resistant
MTT assay. 100 μl cell suspension was added at a concentration of 4˜5×10^4 cells/ml to each well of a 96-well plate, and was set at 37° C., 5% CO2 in the incubator. After 24 h, the sample solution was added, 10 μl/hole, double wells were set, 37° C., acting for 72 h at 5% CO2. […] of 5 mg/ml was added to each well, the dissolving liquid was added after acted for 4 h, 100 μl/hole, kept in the incubator, and read 570 nm OD with MK-2 automatic microplate reader after dissolution.

For orientation: solubility means the dissolved amount per volume that the medium holds. A high value points to a readily soluble substance. As a reminder, the IC50 is the concentration that inhibits the measured activity by half. Compound `COc1ncc(-c2ccc3nccc(-c4ccnnc4)c3c2)cc1NS(=O)(=O)c1ccc(F)cc1F` [GSK2126458, reference compound] showed a solubility at 20 min in data set [1] of 200 µg/mL (≈ 396 µM). For the same compound, the “Tumor Inhibition rate %” value in data set [2] was determined as 65.93%. Further, the “Animal wight (g) (tumor removed)” value in data set [2] (at end) is given as 21.41 ± 1.49 g. The “RTV (d18) x ± SD” value in data set [2] (d18) is recorded as 6.91 ± 1.97. The IC50 in data set [3] is 0.014 µg/mL (≈ 0.0277 µM); in data set [4], 0.61 nM; in data set [5] it was 0.537 µg/mL (≈ 1.06 µM).
